Consider 1 compound from article PMC3261875 (PLoS ONE, 2012).

The target in this test is T1, human heme oxygenase-2 (hHO-2) (Homo sapiens, UniProt P30519).
T1 construct: gene HMOX2; truncation derivative, 1–264 amino acids with an N-terminal His-tag
T1 sequence (P30519 1-264): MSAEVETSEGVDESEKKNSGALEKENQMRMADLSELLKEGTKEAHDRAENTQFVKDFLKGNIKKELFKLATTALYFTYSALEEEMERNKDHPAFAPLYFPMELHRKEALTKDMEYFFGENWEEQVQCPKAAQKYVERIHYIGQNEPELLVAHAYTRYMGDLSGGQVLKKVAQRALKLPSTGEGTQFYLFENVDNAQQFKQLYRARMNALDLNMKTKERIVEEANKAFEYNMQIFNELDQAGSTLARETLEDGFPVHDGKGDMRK
In words: spectral (Soret) binding and heme degradation assay on purified protein.

In the case of `O=C(CC(c1ccccc1)c1ccccc1)Cn1ccnc1` [QC-308, 1-(1H-imidazol-1-yl)-4,4-diphenyl-2-butanone], the “spectral (Soret) binding and heme degradation assay on purified protein” value is reported as “the spectral changes upon addition of QC-308 were similar to those seen for hHO-1”.
